Measured values: US20250195488A1, “MEDICINE CONTAINING VITAMIN D DERIVATIVE OR PHARMACEUTICALLY ACCEPTABLE SALT OR SOLVATE THEREOF, USED IN COMBINATION WITH IMMUNOMODULATORY SUBSTANCE” (TEEJIN PHARMA LIMITED, priority 2022, published 2025)
pEC50: −log10 of the molar value.

Tests used:
[1] = target: T1, human VDR (Homo sapiens, UniProt P11473); experiment: Evaluation of VDR transcription activity in human osteoblasts (HOS cells), luciferase reporter; assay type: cell-based; settings: read-out: Activity (EC50 of VDR transcriptional activity)
T1 construct: expressed in transfected cells; host or cells: HOS cells (ATCC), human osteoblast line; pcDNA3 expression vector
T1 sequence (P11473 1-427): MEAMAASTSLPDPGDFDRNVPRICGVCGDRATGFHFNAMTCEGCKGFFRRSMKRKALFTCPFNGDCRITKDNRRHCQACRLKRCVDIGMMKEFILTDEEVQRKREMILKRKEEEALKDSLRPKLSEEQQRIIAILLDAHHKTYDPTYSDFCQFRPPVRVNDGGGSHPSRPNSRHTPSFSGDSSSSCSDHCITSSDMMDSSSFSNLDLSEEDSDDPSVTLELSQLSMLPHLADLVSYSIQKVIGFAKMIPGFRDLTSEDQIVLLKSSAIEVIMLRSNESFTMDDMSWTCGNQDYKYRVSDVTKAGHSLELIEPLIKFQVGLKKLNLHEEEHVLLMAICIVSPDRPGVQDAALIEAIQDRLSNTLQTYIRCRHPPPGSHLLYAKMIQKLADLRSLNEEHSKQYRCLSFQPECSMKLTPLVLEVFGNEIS
T1 sequence (P19793 1-462 partner): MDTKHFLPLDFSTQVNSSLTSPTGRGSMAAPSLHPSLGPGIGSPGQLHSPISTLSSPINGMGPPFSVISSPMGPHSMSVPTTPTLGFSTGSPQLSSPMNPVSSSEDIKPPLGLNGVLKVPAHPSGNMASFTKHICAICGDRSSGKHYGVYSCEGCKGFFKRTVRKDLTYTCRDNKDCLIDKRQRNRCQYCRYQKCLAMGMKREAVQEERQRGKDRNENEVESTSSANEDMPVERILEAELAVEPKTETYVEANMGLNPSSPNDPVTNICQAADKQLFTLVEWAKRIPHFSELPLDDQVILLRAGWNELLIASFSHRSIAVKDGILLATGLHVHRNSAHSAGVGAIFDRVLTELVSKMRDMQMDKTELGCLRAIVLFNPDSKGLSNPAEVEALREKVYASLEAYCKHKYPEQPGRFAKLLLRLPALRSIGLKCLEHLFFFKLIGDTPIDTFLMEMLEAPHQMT
Experimental: (1) A reporter vector was constructed using pGL4.26 vector (Promega Corporation) and incorporating a sequence of DR3 (×4) gene promoter portion upstream of the luciferase gene. An expression vector was constructed by inserting a DNA sequence encoding human VDR and human RXRα into pcDNA3 vector (Thermo Fisher Scientific, Inc.). Human RenillaLuc-CMV vector (Promega Corporation) was used for the correction of gene transfer efficiency. HOS cells (ATCC) were cultured in DMEM medium containing 10% FBS under the condition of 37° C. and 5% CO2, and passaged every 2 or 3 days. (2) The passaged cells were collected by centrifugation and dispersed in phenol red free DMEM medium containing deactivated and 5% charcoal-treated fetal bovine serum (CSS) at a density of 4×10^5 cells/mL, and then the various vectors described in (1) were introduced using Lipofectamine LTX (Thermo Fisher Scientific, Inc.) reagent at a ratio of 0.25 mL per 1 mL of the cell solution. […] (3) After the incubation for 21 hours under the condition of 37° C. and 5% CO2, the luciferase activity was measured by multi-label counter EnVision (PerkinElmer, Inc.) using Dual-Glo Luciferase Assay kit (Promega Corporation). At the same time, the activity of Renilla luciferase was measured and used to correct the gene transfer efficiency.

[2] = tested on: rat oligodendrocyte progenitor cells; experiment: Promotive activity of rat oligodendrocyte progenitor cell differentiation-2 (immunostaining of MBP); assay type: cell-based; settings: Test 2; vitamin D derivative 2 μM, T3 30 nM, 4 days; DMSO 0.07
Experimental: The promotive activity of oligodendrocyte progenitor cell (OPC) differentiation of the vitamin D derivatives was evaluated by immunostaining of MBP.
Subsequently, oligodendrocyte progenitor cell separation medium was added to the flask, and the mixture was similarly shaken for about 22 hours (37° C., 200 rpm), and the supernatant was collected to prepare oligodendrocyte progenitor cells.

SMILES	pEC50 [1]	mean (number of MBP-positive cells/number of Hoechst33342-positive cells) [2]
C[C@H](CN1CC[C@@H](F)C1)[C@H]1CC[C@H]2/C(=C/C=C3C[C@@H](O)C[C@H](O)C3)CCC[C@]12C [Compound B013, (1R,3R)-5-(2-((1R,3aS,7aR,E)-1-((S)-1-((R)-3-fluoropyrrolidin-1-yl)propan-2-yl)-7a-methyloctahydro-4H-inden-4-ylidene)ethylidene)cyclohexane-1,3-diol]	6.00 to 7.00	
C[C@H](CN1CC[C@@H](CC(F)F)C1)[C@H]1CC[C@H]2/C(=C/C=C3C[C@@H](O)C[C@H](O)C3)CCC[C@]12C [Compound B043, (1R,3R)-5-(2-((1R,3aS,7aR,E)-1-((S)-1-((S)-3-(2,2-difluoroethyl)pyrrolidin-1-yl)propan-2-yl)-7a-methyloctahydro-4H-inden-4-ylidene)ethylidene)cyclohexane-1,3-diol]		0.53
